Source: patent publication US20210045385A1, “PYRIDAZINONE-SUBSTITUTED KETOXIMES AS HERBICIDES” (FMC Corporation, priority 2018, published 2021)

What was measured:
Assay type in all cases: in vivo
[1] = test system: foxtail, giant (giant foxtail, Setaria faberii); test: Test A preemergence, visual plant response rating; conditions: for Foxtail, Giant plant response rating: 125 g ai/ha, preemergence, 0 to 100 scale, 0 no effect, 100 complete control; for Foxtail, Giant plant response rating (0 to 100 scale): 500 g ai/ha Preemergence, approx. 10 days
Summary of the method: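 Compared with untreated controls, treated plants received a visual injury score on a 0–100 scale around 10 days after application. The compound, in a non-phytotoxic solvent with surfactant, was given as a preemergence soil spray or postemergence at the one- to two-leaf stage.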

[2] = test system: barnyardgrass (Echinochloa crus-galli); test: Test A preemergence, visual plant response rating; conditions: for Barnyardgrass plant response rating: 125 g ai/ha, preemergence, 0 to 100 scale, 0 no effect, 100 complete control; for Barnyardgrass plant response rating (0 to 100 scale): 500 g ai/ha Preemergence, approx. 10 days
Summary of the method: (§1)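 Ratings use a 0–100 visual scale (100 = complete control) against untreated controls, scored about 10 days after greenhouse treatment. Test chemicals were formulated in surfactant-containing non-phytotoxic solvent and applied either as soil spray after planting (preemergence) or onto one- to two-leaf, 2–10 cm plants (postemergence).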

[3] = test system: ragweed (common ragweed, Ambrosia elatior); test: Test A preemergence, visual plant response rating; conditions: for Ragweed plant response rating: 125 g ai/ha, preemergence, 0 to 100 scale, 0 no effect, 100 complete control; for Ragweed plant response rating (0 to 100 scale): 500 g ai/ha Preemergence, approx. 10 days
Summary of the method: as §1

[4] = test system: Italian ryegrass (Lolium multiflorum); test: Test A preemergence, visual plant response rating; conditions: for Ryegrass, Italian plant response rating: 125 g ai/ha, preemergence, 0 to 100 scale, 0 no effect, 100 complete control; for Ryegrass, Italian plant response rating (0 to 100 scale): 500 g ai/ha Preemergence, approx. 10 days
Summary of the method: as §1

kochia (Kochia scoparia) [5] = test: Test A preemergence, visual plant response rating; conditions: for Kochia plant response rating: 125 g ai/ha, preemergence, 0 to 100 scale, 0 no effect, 100 complete control; for Kochia plant response rating (0 to 100 scale): 500 g ai/ha Preemergence, approx. 10 days
Summary of the method: as §1

[6] = test system: pigweed (Amaranthus retroflexus); test: Test A preemergence, visual plant response rating; conditions: for Pigweed plant response rating: 125 g ai/ha, preemergence, 0 to 100 scale, 0 no effect, 100 complete control; for Pigweed plant response rating (0 to 100 scale): 500 g ai/ha Preemergence, approx. 10 days
Summary of the method: as §1

[7] = test system: foxtail, giant (giant foxtail, Setaria faberii); test: Test A postemergence, visual plant response rating; conditions: for Foxtail, Giant plant response rating (0 to 100 scale): 500 g ai/ha, postemergence, 0 is no effect, 100 is complete control; for Foxtail, Giant plant response rating: Postemergence, 125 g ai/ha, 0 to 100 scale (0 no effect, 100 complete control)
Summary of the method: as §1

[8] = test system: barnyardgrass (Echinochloa crus-galli); test: Test A postemergence, visual plant response rating; conditions: for Barnyardgrass plant response rating (0 to 100 scale): 500 g ai/ha, postemergence, 0 is no effect, 100 is complete control; for Barnyardgrass plant response rating: Postemergence, 125 g ai/ha, 0 to 100 scale (0 no effect, 100 complete control)
Summary of the method: as §1

[9] = test system: ragweed (common ragweed, Ambrosia elatior); test: Test A postemergence, visual plant response rating; conditions: for Ragweed plant response rating (0 to 100 scale): 500 g ai/ha, postemergence, 0 is no effect, 100 is complete control; for Ragweed plant response rating: Postemergence, 125 g ai/ha, 0 to 100 scale (0 no effect, 100 complete control)
Summary of the method: as §1

[10] = test system: Italian ryegrass (Lolium multiflorum); test: Test A postemergence, visual plant response rating; conditions: for Ryegrass, Italian plant response rating (0 to 100 scale): 500 g ai/ha, postemergence, 0 is no effect, 100 is complete control; for Ryegrass, Italian plant response rating: Postemergence, 125 g ai/ha, 0 to 100 scale (0 no effect, 100 complete control)
Summary of the method: as §1

[11] = test system: wheat (Triticum aestivum); test: Test A postemergence, visual plant response rating; conditions: for Wheat plant response rating (0 to 100 scale): 500 g ai/ha, postemergence, 0 is no effect, 100 is complete control; for Wheat plant response rating: Postemergence, 125 g ai/ha, 0 to 100 scale (0 no effect, 100 complete control)
Summary of the method: as §1

corn (Zea mays) = test: Test A postemergence, visual plant response rating; conditions: for Corn plant response rating (0 to 100 scale): 500 g ai/ha, postemergence, 0 is no effect, 100 is complete control; for Corn plant response rating: Postemergence, 125 g ai/ha, 0 to 100 scale (0 no effect, 100 complete control)
Summary of the method: as §1

[12] = test system: blackgrass (Alopecurus myosuroides); test: Test A postemergence, visual plant response rating; conditions: for Blackgrass plant response rating (0 to 100 scale): 500 g ai/ha, postemergence, 0 is no effect, 100 is complete control; for Blackgrass plant response rating: Postemergence, 125 g ai/ha, 0 to 100 scale (0 no effect, 100 complete control)
Summary of the method: as §1

kochia (Kochia scoparia) [13] = test: Test A postemergence, visual plant response rating; conditions: for Kochia plant response rating (0 to 100 scale): 500 g ai/ha, postemergence, 0 is no effect, 100 is complete control; for Kochia plant response rating: Postemergence, 125 g ai/ha, 0 to 100 scale (0 no effect, 100 complete control)
Summary of the method: as §1

[14] = test system: galium (catchweed bedstraw, Galium aparine); test: Test A postemergence, visual plant response rating; conditions: for Galium plant response rating (0 to 100 scale): 500 g ai/ha, postemergence, 0 is no effect, 100 is complete control; for Galium plant response rating: Postemergence, 125 g ai/ha, 0 to 100 scale (0 no effect, 100 complete control)
Summary of the method: as §1

[15] = test system: pigweed (Amaranthus retroflexus); test: Test A postemergence, visual plant response rating; conditions: for Pigweed plant response rating (0 to 100 scale): 500 g ai/ha, postemergence, 0 is no effect, 100 is complete control; for Pigweed plant response rating: Postemergence, 125 g ai/ha, 0 to 100 scale (0 no effect, 100 complete control)
Summary of the method: as §1

[16] = test system: barnyardgrass (Echinochloa crus-galli); test: Test B flooded paddy test, visual plant response rating; conditions: 250 g ai/ha, Flood, applied to paddy water, 2-leaf stage, evaluated after 13 to 15 days
Summary of the method: (§2)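 At the two-leaf stage, seedlings received compound applied to paddy water flooded 3 cm above soil, a level sustained until assessment. Greenhouse incubation lasted 13 to 15 days before visual comparison with control plants.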

[17] = test system: sedge, umbrella (small-flower umbrella sedge, Cyperus difformis); test: as above; conditions: 250 g ai/ha, Flood, applied to paddy water, 2-leaf stage, evaluated after 13 to 15 days
Summary of the method: as §2

[18] = test system: ducksalad (Heteranhera limosa); test: as above; conditions: 250 g ai/ha, Flood, applied to paddy water, 2-leaf stage, evaluated after 13 to 15 days
Summary of the method: as §2

rice (Oryza sativa) = test: as above; conditions: 250 g ai/ha, Flood, applied to paddy water, 2-leaf stage, evaluated after 13 to 15 days
Summary of the method: as §2

Structure (SMILES)	Foxtail, Giant plant response rating [1]	Foxtail, Giant plant response rating (0 to 100 scale) [1]	Barnyardgrass plant response rating [2]	Barnyardgrass plant response rating (0 to 100 scale) [2]	Ragweed plant response rating [3]	Ragweed plant response rating (0 to 100 scale) [3]	Ryegrass, Italian plant response rating [4]	Ryegrass, Italian plant response rating (0 to 100 scale) [4]	Kochia plant response rating (kochia (Kochia scoparia) [5])	Kochia plant response rating (0 to 100 scale) (kochia (Kochia scoparia) [5])	Pigweed plant response rating [6]	Pigweed plant response rating (0 to 100 scale) [6]	Foxtail, Giant plant response rating (0 to 100 scale) [7]	Foxtail, Giant plant response rating [7]	Barnyardgrass plant response rating (0 to 100 scale) [8]	Barnyardgrass plant response rating [8]	Ragweed plant response rating (0 to 100 scale) [9]	Ragweed plant response rating [9]	Ryegrass, Italian plant response rating (0 to 100 scale) [10]	Ryegrass, Italian plant response rating [10]	further results
CON=C(c1c(O)c(C)nn(C)c1=O)c1cccc2sccc12 [Compound 59]	30	70	0	30	30	100	30	90	10	60	0	70	60	40	50	30	80	60	100	80	Wheat plant response rating (0 to 100 scale) [11]: 0; Wheat plant response rating [11]: 0; Corn plant response rating (0 to 100 scale) (corn (Zea mays)): 20; Corn plant response rating (corn (Zea mays)): 0; Blackgrass plant response rating (0 to 100 scale) [12]: 80; Blackgrass plant response rating [12]: 70; Kochia plant response rating (0 to 100 scale) (kochia (Kochia scoparia) [13]): 80; Kochia plant response rating (kochia (Kochia scoparia) [13]): 80; Galium plant response rating (0 to 100 scale) [14]: 90; Galium plant response rating [14]: 70; Pigweed plant response rating (0 to 100 scale) [15]: 90; Pigweed plant response rating [15]: 80; Plant response rating, Barnyardgrass (0 to 100 scale, 0 is no effect, 100 is complete control) [16]: 0; Plant response rating, Sedge, Umbrella (0 to 100 scale, 0 is no effect, 100 is complete control) [17]: 0; Plant response rating, Ducksalad (0 to 100 scale, 0 is no effect, 100 is complete control) [18]: 0; Plant response rating, Rice (0 to 100 scale, 0 is no effect, 100 is complete control) (rice (Oryza sativa)): 0
CO/N=C(\c1ccsc1C)c1c(O)c(C)nn(C)c1=O [Compound 43]	0	0	0	0	0	20	0	0	0	0	0	30	0	0	0	0	30	20	30	0	Wheat plant response rating (0 to 100 scale) [11]: 0; Wheat plant response rating [11]: 0; Corn plant response rating (0 to 100 scale) (corn (Zea mays)): 0; Corn plant response rating (corn (Zea mays)): 0; Blackgrass plant response rating (0 to 100 scale) [12]: 20; Blackgrass plant response rating [12]: 0; Kochia plant response rating (0 to 100 scale) (kochia (Kochia scoparia) [13]): 20; Kochia plant response rating (kochia (Kochia scoparia) [13]): 0; Galium plant response rating (0 to 100 scale) [14]: 50; Galium plant response rating [14]: 20; Pigweed plant response rating (0 to 100 scale) [15]: 60; Pigweed plant response rating [15]: 20; Plant response rating, Barnyardgrass (0 to 100 scale, 0 is no effect, 100 is complete control) [16]: 0; Plant response rating, Sedge, Umbrella (0 to 100 scale, 0 is no effect, 100 is complete control) [17]: 0; Plant response rating, Ducksalad (0 to 100 scale, 0 is no effect, 100 is complete control) [18]: 0; Plant response rating, Rice (0 to 100 scale, 0 is no effect, 100 is complete control) (rice (Oryza sativa)): 0
CON=C(c1c(O)c(C)nn(C)c1=O)c1ccc(OC)c2ccccc12 [Compound 55]	10	90	0	50	10	80	0	30	0	0	0	0	50	20	30	20	30	0	70	0	Wheat plant response rating (0 to 100 scale) [11]: 20; Wheat plant response rating [11]: 0; Corn plant response rating (0 to 100 scale) (corn (Zea mays)): 30; Corn plant response rating (corn (Zea mays)): 0; Blackgrass plant response rating (0 to 100 scale) [12]: 80; Blackgrass plant response rating [12]: 70; Kochia plant response rating (0 to 100 scale) (kochia (Kochia scoparia) [13]): 30; Kochia plant response rating (kochia (Kochia scoparia) [13]): 10; Galium plant response rating (0 to 100 scale) [14]: 70; Galium plant response rating [14]: 50; Pigweed plant response rating (0 to 100 scale) [15]: 20; Pigweed plant response rating [15]: 0; Plant response rating, Barnyardgrass (0 to 100 scale, 0 is no effect, 100 is complete control) [16]: 0; Plant response rating, Sedge, Umbrella (0 to 100 scale, 0 is no effect, 100 is complete control) [17]: 0; Plant response rating, Ducksalad (0 to 100 scale, 0 is no effect, 100 is complete control) [18]: 0; Plant response rating, Rice (0 to 100 scale, 0 is no effect, 100 is complete control) (rice (Oryza sativa)): 0
C#CCON=C(c1c(O)c(C)nn(C)c1=O)c1cc(Br)cc2ccccc12 [Compound 116]	90	100	100	100	90	90	100	100	10	100	100	100	90	90	90	90	100	100	100	90	Wheat plant response rating (0 to 100 scale) [11]: 60; Wheat plant response rating [11]: 50; Corn plant response rating (0 to 100 scale) (corn (Zea mays)): 80; Corn plant response rating (corn (Zea mays)): 30; Blackgrass plant response rating (0 to 100 scale) [12]: 100; Blackgrass plant response rating [12]: 100; Kochia plant response rating (0 to 100 scale) (kochia (Kochia scoparia) [13]): 80; Kochia plant response rating (kochia (Kochia scoparia) [13]): 60; Galium plant response rating (0 to 100 scale) [14]: 100; Galium plant response rating [14]: 100; Pigweed plant response rating (0 to 100 scale) [15]: 100; Pigweed plant response rating [15]: 90; Plant response rating, Barnyardgrass (0 to 100 scale, 0 is no effect, 100 is complete control) [16]: 55; Plant response rating, Sedge, Umbrella (0 to 100 scale, 0 is no effect, 100 is complete control) [17]: 30; Plant response rating, Ducksalad (0 to 100 scale, 0 is no effect, 100 is complete control) [18]: 60; Plant response rating, Rice (0 to 100 scale, 0 is no effect, 100 is complete control) (rice (Oryza sativa)): 5
